Measurements reported in patent publication US12544361B2, “Composition comprising at least one oxazoline for inhibiting the growth of Malassezia yeasts involved in cradle cap, in particular” (Laboratoires Expanscience, priority 2019, dated 2026).
Values after ≈ are worked out from the molar mass of the structure shown.

Key:
Type in all cases: cell-based
[1] = tested on: Malassezia furfur (ATCC 14521); assay: MIC of cycloceramide OX100 in liquid medium, 96-well plates (GLYcoDiag technology); details: 48 hours at 32.5° C., about 5.20-10^4 cfu/mL per well, strain ATCC 14521
Experimental: (§1) The determination of the minimum inhibitory concentration of cycloceramide OX100 is carried out by a procedure adapted to liquid media in 96-well plates. The MIC study is conducted using GLYcoDiag technology, using the microbial strain Malassezia furfur (American Type Culture Collection (ATCC) reference 14521) as the organism. The cultures are reconstituted according to the instructions of the collection center supplying the reference strain.
Preparation of samples and test microorganisms: OX100 cycloceramide is diluted in culture medium to the following concentrations: final concentrations in culture medium (expressed as percentages by volume): 0.25%; 0.125%; 0.0625%; 0.0312%; 0.01562%; 0.0078%.
Analytical controls are prepared and used identically to the sample: • a control corresponding to the microbiological medium alone; • a control consisting of Phenoxyethanol® prepared at 5% (v/v) directly in the microbiological medium associated with each microbial strain.
(§2) In order to determine the MIC of cycloceramide OX100, it is tested in serial dilutions of 6 dilutions directly in the culture medium intended to support the growth of the M. furfur strain (96-well microplates). Then, each dilution point is contaminated with the test strain in an amount of about 5.20-10^4 cfu/mL per well. Finally, the tests are incubated for 48 hours at 32.5° C. […]

[2] = tested on: Malassezia furfur (CIP 1634.86); assay: MIC in solid medium by agar dilution method; details: CIP1634, strain CIP 1634.86
Experimental: Protocol: the minimum inhibitory concentration (MIC) of a strain of Malassezia furfur (CIP 1634.86) against cycloceramide OX100 is determined in solid medium by agar dilution method according to COURVALIN P., GOLDSTEIN F., PHILIPPON A. and SIROT J.-Fiche technique 5—L'antibiogramme, édition MPC, 1985, p. 199.

[3] = tested on: Malassezia furfur (ATCC 14521); assay: MIC of arabinogalactan and malic acid diester in liquid medium, 96-well plates (GLYcoDiag technology); details: 48 hours at 32.5° C., about 1.30-10^4 cfu/mL per well, strain ATCC 14521
Experimental: as §1, with “The” for “The determination of the”, “concentration (MIC)” for “concentration”, “arabinogalactan and malic acid diester” for “cycloceramide OX100”, “using” for “by”
Preparation of samples and test microorganisms: the products are diluted in culture medium at the concentrations defined in the table below.
Analytical controls are prepared and used identically to the sample: • a control corresponding to the microbiological medium alone; and • a control consisting of Phenoxyethanol® prepared at 5% (v/v) directly in the microbiological medium associated with each microbial strain.
as §2, with “the product,” for “cycloceramide OX100,”, “promote” for “support”, “1.30-10^4” for “5.20-10^4”, “C.±2.5° C., taking care to respect the respiratory type of the strain which is facultative aero-anaerobic.” for “C.”

CCCCCCCCCCCC1=NC(C)(C)CO1 [OX100, 2-undecyl-4,4-dimethyl-1,3-oxazoline]
MIC [1]: 0.031 % (v/v)
MIC [2]: 64 µg/mL (≈ 253 µM)

arabinogalactan
MIC [3]: 2.5 % (v/v)

di-C12-C13-alkyl malate [malic acid diester]
MIC [3]: 1.25 % (v/v)
